According to patent US6313161A, “2,19-methyleneoxy and 2,19-methylenethio bridged steroids as aromatase, 19-hydroxylase inhibitors and methods of their use in the treatment of estrogen mediated disorders” (Merrell Pharmaceuticals Inc., priority 1999, dated 2001):

Columns and labels:
[1] = tested on: intratumor aromatase; test: Inhibition of intratumor aromatase activity (estrogen formed); assay type: in vivo
Text: According to the method of Johnston, J. O. et al., J. Steroid Biochem., 33:521, 1989, which is herein incorporated by reference, the compounds of the present invention were further evaluated for their effect upon intratumor aromatase activity.

[2] = tested on: DMBA-induced mammary tumors; test: DMBA induced mammary tumor growth; assay type: in vivo, rat; conditions: 15 mg/kg/day sc osmotic pump, 42 days
Method: The compounds of the present invention were also tested for the inhibition of tumor growth. Tumor growth inhibition was tested by the treatment of 50-day old female rats with the carcinogen, 7,12-dimethylbenz[a]anthracene[DMBA] and subsequently evaluated for tumor growth and/or remission (Huggins, C. et al., Nature 189:204, 1961; Russo, J. et al., Lab. Investigation 62: 244, 1990). Rats with DMBA-induced mammary tumors (≈[…]) were assigned to the following treatment groups: (1) Non-treated controls, (2) animals with subcutaneous implanted osmotic pump containing vehicle (DMSO/PEG200, 1:4 v/v), and (3) animals with subcutaneous implanted osmotic pump containing vehicle and 15 mg/kg/day of 2,19-(methyleneoxy) androst-4-ene-3,17-dione. Drug-treated animals also received 15 mg/kg/day via subcutaneous injections for the first two days of treatment as a priming dose. Tumor size was monitored for 42 days of drug treatment.

[3] = target: T1, aromatase (Homo sapiens, UniProt P11511); test: Time-dependent aromatase inhibition assay (Kitz-Wilson kinetics); conditions: 25° C., Kitz-Wilson plots; for KI (inactivation): read-out: apparent Ki of inactivation, inhibitor concentration for half-maximal rate of enzyme inactivation
T1 sequence (P11511 1-503): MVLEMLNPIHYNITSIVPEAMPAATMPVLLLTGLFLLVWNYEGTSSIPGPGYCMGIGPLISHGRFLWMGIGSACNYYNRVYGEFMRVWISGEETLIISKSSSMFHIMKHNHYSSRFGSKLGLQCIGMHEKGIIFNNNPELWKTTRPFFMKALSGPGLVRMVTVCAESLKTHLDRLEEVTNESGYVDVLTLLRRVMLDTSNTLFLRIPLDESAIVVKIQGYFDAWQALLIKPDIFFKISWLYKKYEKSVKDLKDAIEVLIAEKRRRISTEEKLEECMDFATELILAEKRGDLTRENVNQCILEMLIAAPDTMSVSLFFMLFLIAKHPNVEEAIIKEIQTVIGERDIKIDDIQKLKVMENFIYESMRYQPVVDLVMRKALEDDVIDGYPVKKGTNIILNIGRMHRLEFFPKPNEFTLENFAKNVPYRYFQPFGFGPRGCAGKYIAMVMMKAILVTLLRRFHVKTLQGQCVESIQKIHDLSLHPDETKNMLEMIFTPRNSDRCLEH
Method: In this assay, the inhibitor is preincubated with enzyme prior to assaying for activity in the presence of high substrate levels. A time-related decrease in enzyme activity can be indicative of irreversible binding of the inhibitor with the enzyme.
In the time-dependent assay, an amount of the enzyme inhibitor in 100 μl of the assay buffer described above which will provide assay concentrations which are usually between 1 nM and 10 μM are added to 35 ml centrifuge tubes containing 600 μl of the NADPH generating system. The preincubation is started by the addition of 700 μl of aromatase preparation, usually 500-800 μg of microsomal protein per ml of assay buffer. These preparations are mixed using a vortex mixer and incubated for 0, 10, 20, or 40 minutes at 25° C. […] Following vortexing, the enzyme incubation is continued for 10 minutes before being terminated by the addition of chloroform. The amount of radioactivity in the aqueous fraction is determined by scintillation procedures. The enzymatic activity for each concentration of inhibitor at each time period of preincubation is calculated as a percent of the "0" minute vehicle control arbitrarily set at 100%. Therefore, the present enzyme inhibition is expressed as a percentage: (100 percent minus percent enzyme activity with inhibitor present).
Enzyme kinetic analysis utilized Kitz-Wilson plots for time-dependent assays. These analyses provide estimates of apparent Ki of inactivation which represents the inhibitor concentration required to produce half-maximal rate of enzyme inactivation. The pseudo first-order rate constant for enzyme inactivation (kcat) and the half-time of inactivation (.tau.50) of infinite inhibitor concentrations were determined.

[4] = substrate: C[C@]12CCC(=O)C=C1CC[C@@H]1[C@@H]2CC[C@]2(C)C(=O)CC[C@@H]12; test: purified protein, by the assay type; conditions: other: substrate of aromatase; 25.0 °C
Method: In the time-dependent assay, an amount of the enzyme inhibitor in 100 μl of the assay buffer described above which will provide assay concentrations which are usually between 1 nM and 10 μM are added to 35 ml centrifuge tubes containing 600 μl of the NADPH generating system. The preincubation is started by the addition of 700 μl of aromatase preparation, usually 500-800 μg of microsomal protein per ml of assay buffer. […] The amount of radioactivity in the aqueous fraction is determined by scintillation procedures. The enzymatic activity for each concentration of inhibitor at each time period of preincubation is calculated as a percent of the "0" minute vehicle control arbitrarily set at 100%. Therefore, the present enzyme inhibition is expressed as a percentage: (100 percent minus percent enzyme activity with inhibitor present).
Enzyme kinetic analysis utilized Kitz-Wilson plots for time-dependent assays. […] The pseudo first-order rate constant for enzyme inactivation (kcat) and the half-time of inactivation (.tau.50) of infinite inhibitor concentrations were determined.

For `C[C@]12CC[C@H]3[C@@H](CCC4=CC(=O)[C@H]5COC[C@]43C5)[C@@H]1CCC2=O` [2,19-(methyleneoxy)androst-4-ene-3,17-dione], the “% Inhibition of intratumor aromatase activity” value (shortened to “% Inhibition”) ([1]; 3 mg/kg intraveneous, 2 hours post treatment) was 70 ± 5%, the “Estrogen formed, absolute level” value ([1]; 3 mg/kg intraveneous, 2 hours post treatment, vehicle control 294 ± 5) was 88 ± 15 picomoles/gram of tumor/hour and the “% Inhibition” value ([1]; 3 mg/kg intraveneous, 4 hours post treatment) was 41 ± 4%. For the same molecule, the “Estrogen formed, absolute level” value ([1]; 3 mg/kg intraveneous, 4 hours post treatment, vehicle control 294 ± 5) was 175 ± 12 picomoles/gram of tumor/hour, the “% Inhibition” value ([1]; 3 mg/kg intraveneous, 6 hours post treatment) was 37 ± 3% and the “Estrogen formed, absolute level” value ([1]; 3 mg/kg intraveneous, 6 hours post treatment, vehicle control 294 ± 5) was 186 ± 9 picomoles/gram of tumor/hour. The “% Inhibition” value ([1]; 3 mg/kg oral, 2 hours post treatment) was 72 ± 5%, the “Estrogen formed, absolute level” value ([1]; 3 mg/kg oral, 2 hours post treatment, vehicle control 173 ± 9) was 49 ± 8 picomoles/gram of tumor/hour and the “% Inhibition” value ([1]; 3 mg/kg oral, 4 hours post treatment) was 64 ± 4%. The “Estrogen formed, absolute level” value ([1]; 3 mg/kg oral, 4 hours post treatment, vehicle control 173 ± 9) was 62 ± 7 picomoles/gram of tumor/hour, the “% Inhibition” value ([1]; 3 mg/kg oral, 6 hours post treatment) was 63 ± 5% and the “Estrogen formed, absolute level” value ([1]; 3 mg/kg oral, 6 hours post treatment, vehicle control 173 ± 9) was 64 ± 9 picomoles/gram of tumor/hour. The “% Inhibition” value ([1]; 3 mg/kg subcutaneous, 2 hours post treatment) was 44 ± 5%, the “Estrogen formed, absolute level” value ([1]; 3 mg/kg subcutaneous, 2 hours post treatment, vehicle control 121 ± 85) was 68 ± 6 picomoles/gram of tumor/hour and the “% Inhibition” value ([1]; 3 mg/kg subcutaneous, 4 hours post treatment) was 45 ± 32%. The “Estrogen formed, absolute level” value ([1]; 3 mg/kg subcutaneous, 4 hours post treatment, vehicle control 121 ± 85) was 67 ± 3 picomoles/gram of tumor/hour, the “% Inhibition” value ([1]; 3 mg/kg subcutaneous, 6 hours post treatment) was 35 ± 7% and the “Estrogen formed, absolute level” value ([1]; 3 mg/kg subcutaneous, 6 hours post treatment, vehicle control 121 ± 85) was 78 ± 9 picomoles/gram of tumor/hour. The “percent of animals with no change” value ([2]; 50 to 150% of original tumor volume, controls 6.7) was 14.3% of animals, the “percent of animals with partial tumor regression” value ([2]; <50% of original tumor volume, controls 6.7) was 42.9% of animals and the “percent of animals with tumor progression” value ([2]; >150% of original tumor volume, controls 80.0) was 28.6% of animals. For the same molecule, the “percent of animals with complete tumor regression” value ([2]; Complete (0%), controls 6.7) was 14.3% of animals, the “.tau.50 (half-time of inactivation at infinite inhibitor concentration)” value [3] was 2.86 min and the KI (inactivation) [3] was 17.6 nM.

For `C[C@]12CC[C@H]3[C@@H](CCC4=CC(=O)[C@H]5CSC[C@]43C5)[C@@H]1CCC2=O` [2,19-(methylenethio)androst-4-ene-3,17-dione], the “.tau.50 (half-time of inactivation at infinite inhibitor concentration)” value [3] was 1.65 min and the KI (inactivation) [3] was 53 nM.

`C[C@]12CC[C@H]3[C@@H](C=CC4=CC(=O)[C@H]5COC[C@]43C5)[C@@H]1CCC2=O` [2,19-(methyleneoxy)androsta-4,6-diene-3,17-dione] was tested, and the “.tau.50 (half-time of inactivation at infinite inhibitor concentration)” value [3] was 2.82 min and the KI (inactivation) [3] was 21.6 nM.

B1: aromatase (Homo sapiens) (protein)
chain: MVLEMLNPIHYNITSIVPEAMPAATMPVLLLTGLFLLVWNYEGTSSIPGPGYCMGIGPLISHGRFLWMGIGSACNYYNRVYGEFMRVWISGEETLIISKSSSMFHIMKHNHYSSRFGSKLGLQCIGMHEKGIIFNNNPELWKTTRPFFMKALSGPGLVRMVTVCAESLKTHLDRLEEVTNESGYVDVLTLLRRVMLDTSNTLFLRIPLDESAIVVKIQGYFDAWQALLIKPDIFFKISWLYKKYEKSVKDLKDAIEVLIAEKRRRISTEEKLEECMDFATELILAEKRGDLTRENVNQCILEMLIAAPDTMSVSLFFMLFLIAKHPNVEEAIIKEIQTVIGERDIKIDDIQKLKVMENFIYESMRYQPVVDLVMRKALEDDVIDGYPVKKGTNIILNIGRMHRLEFFPKPNEFTLENFAKNVPYRYFQPFGFGPRGCAGKYIAMVMMKAILVTLLRRFHVKTLQGQCVESIQKIHDLSLHPDETKNMLEMIFTPRNSDRCLEH
Molecule B1 has a Km [4] of 0.04 µM.
